Results taken from ChEMBL document CHEMBL1201862, “PubChem BioAssay data set” (2004).
Each block holds one compound with its values, some of them ahead of it. Activity calls are given as the source filed them.

Legend:
[1] = molecular target: T1, Acyl-homoserine lactone acylase PvdQ (Pseudomonas aeruginosa (strain LESB58), UniProt Q9I194); test: P. aeruginosa PvdQ acylase inhibitors, dose response, biochemical, fluorescence, plate reader and imaging, cherry-picks (AID 493231)
T1 sequence (Q9I194 whole entry): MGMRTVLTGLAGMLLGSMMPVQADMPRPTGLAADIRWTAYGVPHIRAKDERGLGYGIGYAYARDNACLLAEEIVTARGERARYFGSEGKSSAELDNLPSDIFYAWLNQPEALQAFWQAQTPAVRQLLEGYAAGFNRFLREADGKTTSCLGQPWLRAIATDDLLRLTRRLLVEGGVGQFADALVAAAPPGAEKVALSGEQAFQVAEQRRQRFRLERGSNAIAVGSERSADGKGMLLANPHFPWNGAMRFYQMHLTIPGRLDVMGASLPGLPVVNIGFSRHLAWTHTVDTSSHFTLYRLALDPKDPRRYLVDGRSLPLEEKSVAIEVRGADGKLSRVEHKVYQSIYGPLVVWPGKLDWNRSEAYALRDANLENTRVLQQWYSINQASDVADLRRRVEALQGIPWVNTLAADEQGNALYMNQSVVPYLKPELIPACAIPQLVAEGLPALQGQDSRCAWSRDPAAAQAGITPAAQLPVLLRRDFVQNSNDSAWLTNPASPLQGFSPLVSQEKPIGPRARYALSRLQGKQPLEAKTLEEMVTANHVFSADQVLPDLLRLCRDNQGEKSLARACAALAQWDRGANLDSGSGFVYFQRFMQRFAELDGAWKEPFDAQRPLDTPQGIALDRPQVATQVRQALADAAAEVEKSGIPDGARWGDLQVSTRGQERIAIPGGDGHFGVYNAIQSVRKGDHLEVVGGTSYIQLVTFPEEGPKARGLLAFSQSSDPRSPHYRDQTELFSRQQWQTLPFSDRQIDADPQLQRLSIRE

[2] = molecular target: Voltage-dependent T-type calcium channel subunit alpha-1H (Homo sapiens, UniProt O95180); assay type: functional;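 also: channel activity triggered by adding a high calcium stimulation buffer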
Chain of Voltage-dependent T-type calcium channel subunit alpha-1H (O95180 whole entry): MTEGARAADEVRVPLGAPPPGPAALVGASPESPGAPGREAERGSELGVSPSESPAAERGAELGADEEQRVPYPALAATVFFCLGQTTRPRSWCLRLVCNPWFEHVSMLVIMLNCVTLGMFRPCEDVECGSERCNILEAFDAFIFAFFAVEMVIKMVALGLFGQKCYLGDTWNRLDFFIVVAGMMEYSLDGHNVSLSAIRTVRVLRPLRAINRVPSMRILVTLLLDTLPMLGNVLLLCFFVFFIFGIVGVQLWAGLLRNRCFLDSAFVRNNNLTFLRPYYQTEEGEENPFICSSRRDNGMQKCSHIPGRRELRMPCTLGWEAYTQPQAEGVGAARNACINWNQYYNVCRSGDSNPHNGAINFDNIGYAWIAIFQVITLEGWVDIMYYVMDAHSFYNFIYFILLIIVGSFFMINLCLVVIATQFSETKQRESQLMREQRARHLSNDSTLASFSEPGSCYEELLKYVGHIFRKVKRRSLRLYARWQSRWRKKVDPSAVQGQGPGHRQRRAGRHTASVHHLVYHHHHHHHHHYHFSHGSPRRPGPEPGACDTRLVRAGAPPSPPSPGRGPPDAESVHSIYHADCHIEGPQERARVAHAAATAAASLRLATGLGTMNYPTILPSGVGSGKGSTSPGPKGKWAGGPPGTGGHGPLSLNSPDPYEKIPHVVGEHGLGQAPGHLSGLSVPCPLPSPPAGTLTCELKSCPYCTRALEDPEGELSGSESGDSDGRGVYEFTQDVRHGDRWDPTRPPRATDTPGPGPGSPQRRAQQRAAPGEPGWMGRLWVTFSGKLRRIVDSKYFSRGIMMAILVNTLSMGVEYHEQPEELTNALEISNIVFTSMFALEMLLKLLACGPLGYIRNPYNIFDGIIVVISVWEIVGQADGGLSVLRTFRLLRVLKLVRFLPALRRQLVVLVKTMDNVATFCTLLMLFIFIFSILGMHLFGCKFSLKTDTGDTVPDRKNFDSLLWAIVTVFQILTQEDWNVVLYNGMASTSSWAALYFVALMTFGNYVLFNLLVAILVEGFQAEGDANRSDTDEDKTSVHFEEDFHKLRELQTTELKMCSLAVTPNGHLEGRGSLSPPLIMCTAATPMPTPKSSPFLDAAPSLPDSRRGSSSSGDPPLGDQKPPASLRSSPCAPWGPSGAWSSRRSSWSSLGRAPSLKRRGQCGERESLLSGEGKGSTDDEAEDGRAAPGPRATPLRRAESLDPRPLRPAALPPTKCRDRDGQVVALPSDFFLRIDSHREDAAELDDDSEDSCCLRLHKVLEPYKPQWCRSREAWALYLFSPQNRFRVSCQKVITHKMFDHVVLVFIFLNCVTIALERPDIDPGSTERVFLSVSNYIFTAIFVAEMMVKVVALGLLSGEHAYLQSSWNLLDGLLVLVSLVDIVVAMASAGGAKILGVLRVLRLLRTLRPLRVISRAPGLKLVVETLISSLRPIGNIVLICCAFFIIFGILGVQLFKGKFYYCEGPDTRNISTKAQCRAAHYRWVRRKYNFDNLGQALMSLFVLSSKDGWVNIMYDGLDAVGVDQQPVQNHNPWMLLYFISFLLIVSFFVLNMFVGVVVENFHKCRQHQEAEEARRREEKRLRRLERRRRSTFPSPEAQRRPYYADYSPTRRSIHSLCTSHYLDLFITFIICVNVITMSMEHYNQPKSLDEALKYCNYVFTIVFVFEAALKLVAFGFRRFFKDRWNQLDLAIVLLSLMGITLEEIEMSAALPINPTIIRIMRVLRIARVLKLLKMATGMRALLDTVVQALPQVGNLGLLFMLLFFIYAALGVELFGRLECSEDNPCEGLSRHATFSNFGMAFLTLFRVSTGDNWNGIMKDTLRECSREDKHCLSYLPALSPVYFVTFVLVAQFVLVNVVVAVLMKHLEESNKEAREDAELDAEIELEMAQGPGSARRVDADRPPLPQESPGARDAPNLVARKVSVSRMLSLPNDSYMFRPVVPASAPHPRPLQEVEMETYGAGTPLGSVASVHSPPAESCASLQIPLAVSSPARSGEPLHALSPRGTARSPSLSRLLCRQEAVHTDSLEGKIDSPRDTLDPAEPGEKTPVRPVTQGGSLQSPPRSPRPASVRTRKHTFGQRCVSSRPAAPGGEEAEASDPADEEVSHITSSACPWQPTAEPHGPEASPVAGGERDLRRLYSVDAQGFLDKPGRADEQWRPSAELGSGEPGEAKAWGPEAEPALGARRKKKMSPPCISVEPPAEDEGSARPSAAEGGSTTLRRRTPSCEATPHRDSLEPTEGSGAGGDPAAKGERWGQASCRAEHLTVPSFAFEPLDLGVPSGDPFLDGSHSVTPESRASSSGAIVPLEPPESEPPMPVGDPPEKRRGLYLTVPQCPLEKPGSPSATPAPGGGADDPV

[3] = Glucagon-like peptide 1 release potency, NCI-H716 cell line, dose-response, half-maximal inhibitory concentration (AID 1117344); assay type: functional, cell-based
[4] = half-maximal inhibitory concentration for glucagon-like peptide-1 release, STC-1 cell line, dose-response (AID 1117345); assay type: functional, cell-based
[5] = molecular target: Luciferin 4-monooxygenase (Photinus pyralis, UniProt P08659); test: Counter Screen for Luciferase-based Assay Positives. [Related pubchem assays: 620, 618, 411 ]
Chain of Luciferin 4-monooxygenase (P08659 whole entry): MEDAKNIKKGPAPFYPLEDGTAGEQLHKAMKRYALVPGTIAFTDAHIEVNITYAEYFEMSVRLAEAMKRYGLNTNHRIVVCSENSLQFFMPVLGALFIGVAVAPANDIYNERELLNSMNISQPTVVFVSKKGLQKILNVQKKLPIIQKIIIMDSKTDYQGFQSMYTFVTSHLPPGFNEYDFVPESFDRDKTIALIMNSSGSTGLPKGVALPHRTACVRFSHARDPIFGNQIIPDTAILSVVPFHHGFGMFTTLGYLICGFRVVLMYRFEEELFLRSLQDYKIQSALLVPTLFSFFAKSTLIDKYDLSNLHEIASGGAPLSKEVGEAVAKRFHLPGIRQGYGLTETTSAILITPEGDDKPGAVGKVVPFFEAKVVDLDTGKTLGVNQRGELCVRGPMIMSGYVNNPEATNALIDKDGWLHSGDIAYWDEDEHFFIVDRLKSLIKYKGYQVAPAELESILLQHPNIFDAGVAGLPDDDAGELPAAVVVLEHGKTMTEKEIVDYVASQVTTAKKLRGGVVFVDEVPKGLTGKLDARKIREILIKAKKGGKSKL

HT-1080 = test: cytotoxicity in HT1080 fibrosarcoma cells, cell-based, fluorescence readout (AID 620); assay type: functional; settings: Homo sapiens
[6] = inhibitors of clade B AD8 Env fusion, dose response, cell-based, cherry-pick (AID 652062); assay type: functional;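 also: luciferase signal from cell-cell fusion driven by HIV-1 clade B AD8 Env; potency is for inhibitors of fusion seen as a drop in luminescence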
[7] = inhibitors of HIV Env-driven cell fusion, dose response, cherry-pick (AID 652057); assay type: functional, cell-based
Estrogen receptor = molecular target: T2, Estrogen receptor (Homo sapiens, UniProt P03372);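 also: potency for inhibiting coactivator peptide recruitment to the receptor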
T2 sequence (P03372 whole entry): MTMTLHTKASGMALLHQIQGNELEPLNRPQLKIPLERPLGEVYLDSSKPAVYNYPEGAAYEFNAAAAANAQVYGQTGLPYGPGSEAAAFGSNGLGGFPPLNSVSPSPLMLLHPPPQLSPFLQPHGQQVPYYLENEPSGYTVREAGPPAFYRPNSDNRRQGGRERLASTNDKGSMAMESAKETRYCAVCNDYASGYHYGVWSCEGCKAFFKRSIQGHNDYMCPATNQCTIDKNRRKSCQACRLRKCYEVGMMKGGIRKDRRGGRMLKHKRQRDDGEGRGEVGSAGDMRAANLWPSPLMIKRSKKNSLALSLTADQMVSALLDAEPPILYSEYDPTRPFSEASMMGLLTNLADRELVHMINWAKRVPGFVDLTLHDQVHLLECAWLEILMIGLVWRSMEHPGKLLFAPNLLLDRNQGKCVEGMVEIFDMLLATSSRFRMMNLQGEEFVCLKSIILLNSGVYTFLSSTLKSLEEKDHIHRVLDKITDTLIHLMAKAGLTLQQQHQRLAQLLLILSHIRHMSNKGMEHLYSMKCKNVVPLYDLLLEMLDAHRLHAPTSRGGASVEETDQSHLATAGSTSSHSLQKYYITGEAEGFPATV

[8] = ZM109 Env clade C HIV-1 fusion inhibitors, dose response, HeLa effector, CEM target cells, luciferase, cherry-pick (AID 652058); assay type: functional, cell-based
[9] = off-target signal loss in HeLa-CEM21 co-culture – HeLa F-luc CTL cells, cherry-picked, counter-screen for HIV-1 Env fusion inhibitor project, dose response (AID 652040); assay type: functional, cell-based;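 also: potency for signal decrease marking cytotoxic or nonspecific inhibition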
[10] = molecular target: G-protein coupled receptor 55 (Homo sapiens, UniProt Q9Y2T6); test: GPR55 antagonists blocking LPI-driven arrestin recruitment, primary screen, imaging, U2OS, beta-arrestin-GFP, LPI agonist (AID 2013); assay type: functional;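 also: antagonist potency measured as reduced agonist-driven arrestin aggregation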
Chain of G-protein coupled receptor 55 (Q9Y2T6 whole entry): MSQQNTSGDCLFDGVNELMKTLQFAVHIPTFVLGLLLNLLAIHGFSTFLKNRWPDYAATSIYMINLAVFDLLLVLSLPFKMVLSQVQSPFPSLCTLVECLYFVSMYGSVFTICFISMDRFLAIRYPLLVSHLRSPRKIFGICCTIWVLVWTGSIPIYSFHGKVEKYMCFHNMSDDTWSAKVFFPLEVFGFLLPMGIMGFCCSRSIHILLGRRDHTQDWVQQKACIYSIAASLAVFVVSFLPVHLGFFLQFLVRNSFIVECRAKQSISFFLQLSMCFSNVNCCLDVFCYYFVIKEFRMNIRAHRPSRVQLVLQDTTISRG

[11] = molecular target: T3, Alkaline phosphatase, tissue-nonspecific isozyme (Homo sapiens, UniProt P05186); test: human TNAP enzyme inhibitors, SAR follow-up, biochemical, luminescent, dose response (AID 1056)
T3 sequence (P05186 whole entry): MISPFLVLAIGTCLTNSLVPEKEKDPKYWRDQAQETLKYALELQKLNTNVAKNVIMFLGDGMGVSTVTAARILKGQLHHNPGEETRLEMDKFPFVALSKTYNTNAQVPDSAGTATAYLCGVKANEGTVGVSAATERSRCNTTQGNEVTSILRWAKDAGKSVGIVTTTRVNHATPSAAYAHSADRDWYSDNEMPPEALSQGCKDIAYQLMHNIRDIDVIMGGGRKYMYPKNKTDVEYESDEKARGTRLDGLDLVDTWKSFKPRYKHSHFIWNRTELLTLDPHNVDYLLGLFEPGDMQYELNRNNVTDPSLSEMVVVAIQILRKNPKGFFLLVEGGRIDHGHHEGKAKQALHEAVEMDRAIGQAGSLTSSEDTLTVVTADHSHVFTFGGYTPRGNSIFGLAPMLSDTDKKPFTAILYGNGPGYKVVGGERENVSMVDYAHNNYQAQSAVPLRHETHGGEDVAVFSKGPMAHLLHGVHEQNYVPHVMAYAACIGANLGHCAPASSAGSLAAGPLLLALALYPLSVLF

[12] = molecular target: Glyceraldehyde-3-phosphate dehydrogenase (Homo sapiens, UniProt P04406)
Chain of Glyceraldehyde-3-phosphate dehydrogenase (P04406 whole entry): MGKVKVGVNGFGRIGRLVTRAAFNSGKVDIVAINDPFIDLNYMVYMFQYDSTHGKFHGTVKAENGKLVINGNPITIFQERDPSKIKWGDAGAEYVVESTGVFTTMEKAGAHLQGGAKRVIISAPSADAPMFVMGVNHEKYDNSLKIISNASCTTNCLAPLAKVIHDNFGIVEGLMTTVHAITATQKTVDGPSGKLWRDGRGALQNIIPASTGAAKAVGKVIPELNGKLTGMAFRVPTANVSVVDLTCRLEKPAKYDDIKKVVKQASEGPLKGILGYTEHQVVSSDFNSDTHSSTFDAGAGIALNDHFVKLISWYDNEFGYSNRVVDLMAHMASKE

SMILES: COc1ccccc1C(C#N)c1cccc(Cl)n1 (configuration not stated)
- AC50 [1]: 850 nM (active)

- EC50 [2]: 2.54 µM (active)
SMILES: CCN(CCCNC(=O)CCc1nc(-c2ccc(C)cc2)no1)c1cccc(C)c1

SMILES: CCCCCCCCCCCCOCCOCCOCCOCCOCCOCCOCCOCCOCCO
- IC50 [3]: > 40 µM (inactive)
- IC50 [4]: 30.4 µM (inactive)

SMILES: Nc1ccc(Cl)cc1C(=O)c1ccccc1F
- IC50 [3]: > 40 µM (inactive)
- IC50 [4]: > 40 µM (inactive)

SMILES: Cc1cc(N)n2nc(-c3ccccc3)cc2n1
- EC50 [5]: 1.04 µM (active)
- EC50 (HT-1080): > 50 µM (not active)

SMILES: Cc1ccc(C(C(=O)NC(C)(C)C)N(Cc2cccs2)C(=O)c2csnn2)cc1 (configuration not stated)
- AC50 [6]: 1.67 µM (active)
- AC50 [7]: 10.2 µM (active)
- IC50 (Estrogen receptor): > 50 µM (not active)
- AC50 [8]: 17.5 µM (active)
- AC50 [9]: 22.6 µM (active)

- IC50 [10]: 1.92 µM (active)
SMILES: Cc1ccc(CNCc2cc3c(C(C)(C)C)nn(-c4ccccc4)c3[nH]c2=O)cc1

- EC50 [2]: 60.1 µM (active)
SMILES: CCCC(C)NC(=O)c1ccc2[nH]c3c(c2c1)CC(C)CC3 (configuration not stated)

- IC50 [11]: > 100 µM (inactive)
- IC50 [12]: > 100 µM (not active)
SMILES: CC(C)c1cc(C(C)C)c(S(=O)(=O)Nc2cnc3ccccc3c2)c(C(C)C)c1
